For three compounds, MIC, half-life and ED50 results are on record in patent US4863914A, “Penem derivatives” (Farmitalia Carlo Erba, priority 1985, dated 1989).

Series [1] has as its system Pseudomonas aeruginosa 2598. The series is described as follows: In-vitro antibacterial activity, agar dilution technique. The class given is cell-based. From the text: (§1) In-Vitro Antibacterial Activity (γ/ml)
(§2) Against Gram-positive And Gram-negative bacteria
(§3) As Determined By The Agar Dilution Technique

The test system of series [2] is E. coli 026:B6 cef R (IV). The series is described as above. The class given is cell-based. The following applies: Escherichia coli.
Excerpt: as §1, §2, §3

The subject of series [3] is S. Aureus 209 P. The description is as above. The class given is cell-based. The following applies: Staphylococcus aureus.
Excerpt: as §1, §2, §3

In series [4] the test system is S. pyogenes ATCC 12384. The series is described as above. The class given is cell-based. The conditions noted are these: Streptococcus pyogenes.
Excerpt: as §1, §2, §3

In series [5] the test system is K. aerogenes 1082 E. Described as above. The class given is cell-based. The following applies: Klebsiella aerogenes.
Excerpt: as §1, §2, §3

Series [6] deals with S. Epidermidis. The description is as above. The class given is cell-based. The conditions noted are these: Staphylococcus epidermidis.
Excerpt: as §1, §2, §3

In series [7] the test system is Streptococcus faecalis (4 Strains). Described as above. The class given is cell-based. The conditions noted are these: Enterococcus faecalis.
Excerpt: as §1, §2, §3

Series [8] relates to Proteus morganii ATCC 25830. The description is as above. The class given is cell-based. The following applies: Morganella morganii, ATCC25830.
Excerpt: as §1, §2, §3

Series [9] concerns P. rettgeri ATCC 9250. The series is described as above. The class given is cell-based. The conditions noted are these: Providencia rettgeri, ATCC9250.
Excerpt: as §1, §2, §3

For series [10], the system named is Staphylococcus aureus Smith. Described as above. The class given is cell-based.
Excerpt: as §1, §2, §3

Series [11] has as its system Klebsiella aerogenes 1522 E. The description is as above. The class given is cell-based.
Excerpt: as §1, §2, §3

The test system of series [12] is Escherichia coli 026:B6. The description is as above. The class given is cell-based.
Excerpt: as §1, §2, §3

A short description of series [13]: Plasma half-life after a single intravenous dose in the mouse. The class given is in vivo. The following applies: 10 mg/kg, single intravenous dose 10 mg/kg, two compartments open model. The method, then:
| ^(1) Determined after a single intravenous dose (10 mg/kg) in the | mouse; the plasma concentration vs. time data were best described | according to a two compartments open model with the tabulated

Series [14] relates to Citrobacter Freundii ATCC 8090. The series is described as follows: In-vitro antibacterial activity, agar dilution technique. The class given is cell-based. The following applies: ATCC8090.
Excerpt: as §1, §2, §3
For orientation: Agar dilution tests growth on a series of plates holding different concentrations.

The test system of series [15] is Serratia marcescens ATCC 2902. Described as above. The class given is cell-based.
Excerpt: as §1, §2, §3

The subject of series [16] is Escherichia coli G. As to the kind of experiment: Experimental infections in mice (intraperitoneal). The following applies: 6 h, E. coli G, intraperitoneal infection in mice, 3 × LD50 challenge, treatments at 30, 90, 360 minutes, read-out: ED50 (cumulative dose). The class given is in vivo. The method, then: (§4) ^(2) Intraperitoneal infection in mice with a 3 × LD50
(§5) challenge; treatments at 30 minutes after infection for S. aureus and 30,
(§6) 90, 360 minutes for E. coli and K. pneumoniae.

The test system of series [17] is Klebsiella pneumoniae FI 5724. The series is described as follows: Experimental infections in mice (intraperitoneal). The class given is in vivo. The conditions noted are these: FI5724, 6 h, K. pneumoniae FI 5724, intraperitoneal infection in mice, 3 × LD50 challenge, treatments at 30, 90, 360 minutes, read-out: ED50 (cumulative dose). The method, then:
as §4, §5, §6

Series [18] has as its system Staphylococcus aureus Smith. The series is described as follows: Experimental infections in mice (intraperitoneal). The class given is in vivo. The following applies: 0.5 h, S. aureus Smith, intraperitoneal infection in mice, 3 × LD50 challenge, treatment at 30 minutes after infection, read-out: ED50 (cumulative dose). How it is done:
as §4, §5, §6

Where [19] appears, read: ATCC12384, S. pyogenes ATCC 12384, agar dilution technique, read-out: In-Vitro Antibacterial Activity.

In brackets after ≈: the same amount, converted by molar mass. Read-outs that look alike come from different tables or passages of the source.

For `CO/N=C(\C(=O)N[C@@H]1C(=O)N2C(C(=O)O)=C(COC(C)=O)CS[C@H]12)c1csc(N)n1` [Cefotaxime], the MIC in [1] came to 25 µg/mL (≈ 54.9 µM); in [2] it was 1.25 µg/mL (≈ 2.74 µM); in [3] it was 1.56 µg/mL (≈ 3.43 µM); in series [4] (ATCC12384, read-out: In-Vitro Antibacterial Activity) it was 1.25 µg/mL (≈ 2.74 µM); in series [5] it was 6.25 µg/mL (≈ 13.7 µM); in series [6], 6.25 µg/mL (≈ 13.7 µM). The MIC was 10 µg/mL (≈ 22 µM) in [7]; 0.037 µg/mL (≈ 0.0812 µM) in series [8]; 0.018 µg/mL (≈ 0.0395 µM) in [9]; 0.77 µg/mL (≈ 1.69 µM) in series [10]; 0.095 µg/mL (≈ 0.209 µM) in series [11]; 0.38 µg/mL (≈ 0.834 µM) in series [12].

As for `C[C@@H](O)[C@H]1C(=O)N2C(C(=O)[O-])=C(c3ccc(C[n+]4ccccc4)cc3)S[C@H]12` [Compound 5, (5R,6S)-6-[(1R)-hydroxyethyl]-2-[4-(pyridiniomethyl)phenyl]penem-3-carboxylate], the half-life worked out at 5 min in series [13] (read-out: Plasma half-life t1/2 α) and 15 min in [13] (read-out: Plasma half-life t1/2 β). Further, the MIC is 25 µg/mL (≈ 65.4 µM) in [1]; 0.38 µg/mL (≈ 0.994 µM) in [2]; 0.005 µg/mL (≈ 0.0131 µM) in series [3]; 0.19 µg/mL (≈ 0.497 µM) in [14]; 0.011 µg/mL (≈ 0.0288 µM) in series [4] (setting [19]); 0.76 µg/mL (≈ 1.99 µM) in series [15] (ATCC2902, Serratia marcescens ATCC 2902, agar dilution technique, read-out: In-Vitro Antibacterial Activity). Besides, the MIC in series [5] stood at 0.38 µg/mL (≈ 0.994 µM); in [6], 0.19 µg/mL (≈ 0.497 µM); in series [7] it was 0.06 µg/mL (≈ 0.157 µM); in series [8], 0.38 µg/mL (≈ 0.994 µM); in [9] it was 0.38 µg/mL (≈ 0.994 µM); in series [10], 0.011 µg/mL (≈ 0.0288 µM). The results for the MIC in series [11] and in [12] were 0.38 µg/mL (≈ 0.994 µM) and 0.19 µg/mL (≈ 0.497 µM), respectively. The ED50 (usually the dose that gives a 50% effect, or the effect in half of the subjects) in series [16] came to 0.5 mg/kg; in series [17] it was 0.8 mg/kg; in series [18] it was 0.06 mg/kg.

On to `CC(=O)OCC1=C(C(=O)O)N2C(=O)C(C(C)O)C2S1` (stereo not drawn) [FCE 21420], for which the MIC in series [1] came out at 100 µg/mL (≈ 348 µM); in series [2] it was 3.12 µg/mL (≈ 10.9 µM); in series [3], 0.046 µg/mL (≈ 0.16 µM); in [14] it was 1.52 µg/mL (≈ 5.29 µM); in series [4] (setting [19]), 0.046 µg/mL (≈ 0.16 µM); in series [15] (Serratia marcescens, ATCC2902, read-out: In-Vitro Antibacterial Activity), 3.12 µg/mL (≈ 10.9 µM). For the same compound, the MIC in series [5] was determined as 0.76 µg/mL (≈ 2.65 µM); in series [6] it was 0.76 µg/mL (≈ 2.65 µM); in series [7], 0.1 µg/mL (≈ 0.348 µM); in [8] it was 1.52 µg/mL (≈ 5.29 µM); in [9], 1.52 µg/mL (≈ 5.29 µM); in series [10], 0.046 µg/mL (≈ 0.16 µM). Besides, the MIC was 1.55 µg/mL (≈ 5.4 µM) in series [11] and 0.76 µg/mL (≈ 2.65 µM) in [12].
